The subject of this assay is Croton Oil Induced Topical Inflammation in Mice. Put plainly: Croton oil induced topical inflammation in mice (ear swelling). The note with it: 10 mg/kg s.c.; vs vehicle group; 6 h. The class given is in vivo, mouse. Here is the method: Male or female ICR derived mice weighing 22±1 g were used. Space allocation for 5 animals was 45×23×15 cm. Mice were house in APEC R cages. All animals were maintained in a controlled temperature (22° C.-24° C.) and humidity (60%-80%) environment with 12 h light/dark cycles. Free access to standard lab chow for Mice (LabDiet Rodent Diet, PMI Nutrition International, USA) and tap water was granted.
Acetone (Wako, Japan), Croton oil (Sigma, USA), Indomethacin (Sigma, USA) and Pyrogen free saline (Astar, Taiwan).
Groups of 5 ICR derived male mice weighing 22±1 g were used. […] Ear swelling was measured by Dyer model micrometer gauge 6 h after croton oil as an index of inflammation.

Here are results for one molecule from US6803362B2, “Heterocyclic compounds” (Ortho-McNeil Pharmaceutical inc., priority 2001, dated 2004).

With `CN1CCN(C(=O)c2cc3cc(Cl)ccc3[nH]2)CC1` [Compound 1, (5-Chloro-1H-indol-2-yl)-(4-methyl-piperazin-1-yl)-methanone], the “% inhib (ear swelling)” value is on record as “(−28%)”.
